Holding throughout (assay type): in vivo
Test [1] concerns I1879V edited Oryza sativa plants. As to the kind of experiment: Herbicide spray tolerance of I1879V edited plants. Particulars: for tolerance compared with wild-type control: 5 g.a.i./mu, FIG. 6; for phytotoxicity observed: field seedlings. The protocol: (§1) Multiple Oryza sativa varieties such as Wanzhijing 006, Nanjing 9108, and Jiahe 218 were used as experimental materials. The base editor constructed above was transformed into the Oryza sativa plants by A. tumefaciens to obtain gene-edited plants. Emerging seedlings were screened with a sethoxydim-containing medium at a concentration of SET-2: 2 mg/L. Or, edited seedlings were planted in a cultivation room. The edited seedlings and the control plants were sprayed with sethoxydim at a concentration of 0.5 g/L (corresponding to a field application dosage of 10 g. a.i/mu), and a survival rate of the seedlings was counted 10 d later.
(§2) For I1879V edited Oryza sativa plants, the dosage of sethoxydim was further increased to a corresponding field application dosage of 15 g. a.i/mu. The dosage of sethoxydim was further increased to 30 g. a.i/mu.
(§3) The I1879V and C2186R edited Oryza sativa plants obtained in Example 1 were planted, and the resistance to other types of herbicides was tested, such as phenthodim, quizalofop-p, fenoxaprop-p-ethyl, clethodim, haloxyfop-p-methyl, fenoxaprop, and butyclofen.
(§4) Dibble Oryza sativa plants at the seedling stage in the field were selected and sprayed with phenthodim at 20 g.a.i./mu (4 times a recommended dosage), and then results were observed.
(§5) Quizalofop-p and fenoxaprop-p-ethyl were each applied at 5 g.a.i./mu to I1879V edited plants and C2186R edited plants, and results were observed 14 d later.
The tolerance of the I1879V edited plants to clethodim, haloxyfop-p-methyl, fenoxaprop, and butyclofen was tested, where the clethodim, haloxyfop-p-methyl, and fenoxaprop were each applied at concentrations of 5 g.a.i./mu (1×) and 10 g.a.i./mu (2×); and the butyclofen was applied at concentrations of 10 g.a.i./mu (1×) and 20 g.a.i./mu (2×). After the herbicide was applied for 20 d, the growth of the edited plants was observed and the herbicide resistance of the edited plants was counted.

Test [2] deals with C2186R edited Oryza sativa plants. The test is described as follows: Herbicide spray tolerance of C2186R edited plants. Particulars: for tolerance compared with wild-type control: 5 g.a.i./mu, 14 d later, FIG. 6. The protocol:
as §1
(§6) Through screening cultivation, herbicide-resistant plants were screened out on a sethoxydim-containing medium. […] In addition, herbicide-resistant plants were also screened out in the cultivation room.
as §3, §4, §5

Test [3] has as its system wild-type Oryza sativa plants. As to the kind of experiment: Herbicide spray on wild-type control plants. To be noted: for phytotoxicity observed: field seedlings. The protocol: as §1, §2, §4
The subject of test [4] is I1879V edited Oryza sativa plants. The test is described as follows: Screening of emerging seedlings on sethoxydim-containing medium. To be noted: 2 mg/L, FIG. 2. The protocol:
as §1, §6

Setting [5] is: 20 g.a.i./mu (4 times recommended dosage), 7 d after spraying.
Setting [6] is: 20 g.a.i./mu, 20 d after application, FIG. 5.
Setting [7] is: 15 g. a.i/mu, 14 d later, FIG. 4.

As for `CCOC(=O)[C@@H](C)Oc1ccc(Oc2nc3ccc(Cl)cc3o2)cc1` [fenoxaprop-p-ethyl], the “tolerance compared with wild-type control” value in test [1] (14 d later) and in test [2] was “failed to produce tolerance” in each case.
For the compound phenthodim, the phytotoxicity observed result in test [1] (setting [5]) was “no visible phytotoxicity”; in test [1] (setting [6]), “no obvious phytotoxicity”; in test [2] (20 g.a.i./mu, field seedlings), “obvious phytotoxicity”; in test [3] (setting [5]) it was “obvious chlorosis and spots”; in test [3] (setting [6]), “serious phytotoxicity”.
For `CCC/C(=N\OCC)C1=C(O)CC(CC(C)SCC)CC1=O` (stereo not drawn) [sethoxydim], the “herbicide tolerance of edited seedlings on herbicide-containing medium” value in test [4] was “able to tolerate the herbicide”. For the same compound, in test [1] (setting [7]), the “growth of edited material after herbicide” value is “grew normally”. For the same compound, the phytotoxicity result in test [1] (30 g. a.i/mu, 20 d) is reported as “about 30%”. The “herbicide tolerance of edited seedlings after spraying” value in test [2] (sprayed at 0.5 g/L (field application dosage 10 g. a.i/mu), 10 d, FIG. 3) is reported as “able to tolerate the herbicide”. In test [3] (setting [7]), the “state of control plants after herbicide” value is “obviously yellow and dead”. The “survival of wild-type plants after herbicide” value in test [3] (30 g. a.i/mu, 20 d) is “all wild-type plants died”.
Turning to `C[C@@H](Oc1ccc(Oc2cnc3cc(Cl)ccc3n2)cc1)C(=O)O` [Quizalofop-p, quizalofop-p], the “tolerance compared with wild-type control” value in test [1] (14 d later) and in test [2] was “failed to produce tolerance” in each case.

Values taken from patent US12398400B2, “Herbicide-resistant acetyl-CoA carboxylase (ACC) mutant and use thereof” (priority 2020, dated 2025).
